Results reported in patent US20080261898A1, “COMPOSITION AND METHOD FOR CANCER TREATMENT AND PREVENTION” (priority 2007, published 2008).

Tests used:
VEGF [1] = test: VEGF expression in DU-145 cells, immunoblotting; format: cell-based, human
Procedure: AC620 was dissolved in ethanol and then added to cultured DU-145 cells, a hormone-refractory, metastatic prostate cancer cell line. The concentrations tested were 0, 0.1, 0.5, 1 and 4 μM, and the cells were grown for 72 hr. Cells treated with ethanol for the same time period were used as Control. DU-145 cells were maintained in RPMI 1640 medium (PAA Laboratories, Pashing, Austria) supplemented with 10% fetal calf serum (FCS) (Sigma, St. Louis, Mo.). After 72 hr treatment, cell Tysates were collected and immunoblotting was performed. The membranes were probed with primary antibodies against VEGF and actin (Santa Cruz Biotechnology, Santa Cruz, Calif.) followed by horseradish peroxidase (HRP)-conjugated secondary antibodies (Amersham Life Science, Alesbury, U.K.) and visualized using the Enhanced Chemi-Luminescence detection system (ECL) and ECL films (Amersham Pharmacia Biotech).

LNCaP cells [2] = test: BrdU based cell proliferation assay, LNCaP cells; parameters: species or system human
Procedure: AC620 was incubated with hormone-refractory prostate cancer cell line DU-145 cells and hormone-responsive prostate cancer cell line LNCaP cells at various concentrations (0, 0.1, 0.5, 1, 5 μM) for 72 hr. LNCaP cells were maintained in RPMI 1640 medium (PAA Laboratories, Pashing, Austria) supplemented with 10% fetal calf serum (FCS) (Sigma, St. Louis, Mo.). The effect of AC620 on proliferation of DU-145 cells and LNCaP cells was determined by using a non-radioactive BrdU based cell proliferation assay kit (Roche, Switzerland) according to manufacturer's protocol. BrdU incorporation into the cellular DNA was determined by measuring the absorbance at 450 nm and 690 nm on an ELISA plate reader.
AC620 was incubated with hormone-refractory prostate cancer cell line DU-145 cells and hormone-responsive prostate cancer cell line LNCaP cells at 0 (Control) and 5 μM for 24, 48 and 72 hr. The effect of AC620 on proliferation of DU-145 cells and LNCaP cells was determined by using a non-radioactive BrdU based cell proliferation assay kit (Roche, Switzerland) according to manufacturer's protocol. BrdU incorporation into the cellular DNA was determined by measuring the absorbance at 450 nm and 690 nm on an ELISA plate reader.

DU-145 cells = test: Cell cycle profile by flow cytometry, DU-145 cells; format: cell-based, human; conditions: 72 hr
Procedure: AC620 was incubated with DU-145 cells at various concentrations ([…]) for 72 hr. The cells were then collected and their cell cycle profiles were measured by flow cytometry analysis.

CDK2 [3] = test: CDK2 expression in DU-145 cells, immunoblotting; format: cell-based, human; conditions: 72 hr
Procedure: After 72 hr treatment, cell lysates were collected and immunoblotting was performed. The membranes were probed with primary antibodies against CDK2 (Transduction Laboratory, San Jose, Calif.) and actin (Santa Cruz Biotechnology, Santa Cruz, Calif.) followed by horseradish peroxidase (HRP)-conjugated secondary antibodies and visualized using the Enhanced Chemi-Luminescence detection system (ECL) and ECL films.

LNCaP cells [4] = test: Viable cells, Annexin-V staining and flow cytometry, LNCaP cells; format: cell-based, human; conditions: 72 hr
Procedure: (§1) AC620 was incubated with DU-145 cells, LNCaP cells and primary human prostate endothelial cells at high concentrations (0, 5, 100, 500, 1000 μM) for 72 hr. The number of viable cells was measured by Annexin-V staining followed by flow cytometry analysis.

[5] = system: primary human prostate endothelial cells; test: Viable cells, Annexin-V staining and flow cytometry, primary human prostate endothelial cells; format: cell-based; conditions: up to the highest concentration, 1000 μM, 72 hr
Procedure: as §1

HT-29 cells = test: Apoptosis, Annexin V, HT-29 cells; format: cell-based; conditions: 72 hr
Procedure: AC620 was incubated with DU-145 cells and LNCaP cells at various concentrations (0, 0.1, 0.5, 1, 5 μM) for 72 hr. The effect of AC620 on apoptosis of DU-145 cells and LNCaP cells was assessed. The cells were washed in 1×PBS and resuspended in binding buffer (0.01M Hepes pH 7.4, 0.14M NaCl, 2.5 mM CaCl2), stained with Annexin V conjugated with APC (Pharmingen) and then subjected to flow cytometry analysis using FACS Caliber (BD Biosciences, San Jose, Calif.).
AC620 was incubated with metastatic colorectal cancer cell line HT-29 cells at various concentrations (0, 0.1, 0.5, 1, 4 μM) for 72 hr. The effect of AC620 on apoptosis of HT-29 cells was assessed by Annexin V stating as described above.

VEGF [6] = test: VEGF expression in xenograft tumor samples, immunohistochemistry; format: in vivo, mouse; conditions: 1 mg/kg s.c. twice a week, 30 days
Procedure: (§2) 8-12 week old athymic nude mice (Jackson Laboratories, Bar Harbor, Me., US) were randomly assigned to Control (n=10) and Treatment (n=10) groups. Tumor xenografts were generated by injecting DU-145 cells (4×10^6) subcutaneously into the mice (Day 1). 1 mg/kg body weight of AC620 or PBS (Control) was administrated to the mice by subcutaneous injection starting at the time of tumor implantation (Day 1) and the mice were treated twice a week. Tumors were measured periodically. At Day 30, the mice were sacrificed. Half of each tumor was processed for immunohistochemical analysis and the other half was frozen for subsequent protein and RNA analysis.
Xenograft mouse model was generated and AC620 or PBS (Control) was administrated to the transplanted mice for 30 days as described above. After the mice were sacrificed, immunohistochemical analysis of the tumor samples was performed using VEGF and VEGF R2 antibodies with a semi-automatic system Ventana ES (Ventana Inc, Tucson, Ariz.). The specimens were viewed with an Olympus BX51 microscope. Expression of VEGF in tumor samples at RNA level was measured by RT-PCR.

CDK2 [7] = test: CDK2 expression in xenograft tumor samples, immunoblotting; format: in vivo, mouse
Procedure: as §2
Xenograft mouse model was generated and AC620 or PBS (Control) was administrated to the transplanted mice for 30 days as described above. After the mice were sacrificed, immunoblotting analysis of the tumor samples was performed using CDK1 and CDK2 antibodies as described above.

## CC1OC(OCC2OC(Oc3c(-c4ccc(O)c(O)c4)oc4cc(O)c(O)cc4c3=O)C(O)C(O)C2O)C(O)C(O)C1O (stereo not shown) [AC620]
VEGF [1]; 0.1 μm AC620, 72 hr
  reduced VEGF expression: approximately 40%
VEGF [1]; 0.5 μm AC620, 72 hr
  reduced VEGF expression: approximately 60%
VEGF [1]; 1 μm AC620, 72 hr
  reduced VEGF expression: approximately 80%
VEGF [1]; 4 μm AC620, 72 hr
  reduced VEGF expression: over 95%
LNCaP cells [2]; 5 μM, after 24 hr
  decrease in cell proliferation of LNCaP cells: 16%
LNCaP cells [2]; 5 μM, after 48 hr
  decrease in cell proliferation of LNCaP cells: 20%
LNCaP cells [2]; 5 μM, after 72 hr (time study)
  decrease in cell proliferation of LNCaP cells: 65%
LNCaP cells [2]; 0.1 μm, 72 hr
  decrease in cell proliferation of LNCaP cells: 23%
LNCaP cells [2]; 0.5 μm, 72 hr
  decrease in cell proliferation of LNCaP cells: 20%
LNCaP cells [2]; 1 μm, 72 hr
  decrease in cell proliferation of LNCaP cells: 42%
LNCaP cells [2]; 5 μm, 72 hr (dose study)
  decrease in cell proliferation of LNCaP cells: 65%
DU-145 cells; 0.1 μm
  G1 phase cell cycle arrest: 0%
DU-145 cells; 0.5 μm
  G1 phase cell cycle arrest: 4%
DU-145 cells; 1 μm
  G1 phase cell cycle arrest: 18%
DU-145 cells; 5 μm
  G1 phase cell cycle arrest: 32%
CDK2 [3]; 0.1 μm
  estimated decrease of CDK2 expression: ~0%
CDK2 [3]; 0.5 μm
  estimated decrease of CDK2 expression: ~10%
CDK2 [3]; 1 μm
  estimated decrease of CDK2 expression: ~20%
CDK2 [3]; 4 μm
  estimated decrease of CDK2 expression: ~60%
LNCaP cells [4]; 5 μm
  viable LNCaP cells decreased: 42%
LNCaP cells [4]; 100 μm
  viable LNCaP cells decreased: 67%
LNCaP cells [4]; 500 μm
  viable LNCaP cells decreased: 92%
LNCaP cells [4]; 1000 μm
  viable LNCaP cells decreased: 96%
[5]
  viability of primary human prostate endothelial cells: remained viable
HT-29 cells; 0.1 μm
  apoptosis increased, HT-29 cells: 10%
HT-29 cells; 0.5 μm
  apoptosis increased, HT-29 cells: 87%
HT-29 cells; 1 μm
  apoptosis increased, HT-29 cells: 220%
HT-29 cells; 5 μm
  apoptosis increased, HT-29 cells: 267%
VEGF [6]
  expression of VEGF in tumors: completely abolished
CDK2 [7]; Treatment 1
  reduction of CDK2 expression in tumor samples: approximately 80%
CDK2 [7]; Treatments 2, 3 and 4
  reduction of CDK2 expression in tumor samples: > 95%
